# From patent US20210130417A1, “SYSTEMS AND METHODS FOR DESIGNING SYNTHETIC ANTIMICROBIAL PEPTIDES” (University of Notre Dame du Lac, priority 2017, published 2021)
# Residues, ends and D or L forms follow the SMILES beside them.
# How the values were obtained:
# [1] = system: sheep red blood cells (RBCs); conditions: compared to the PBS control
# Description: For hemolysis assays, 100 μL of sheep red blood cells (RBCs) were washed three times in cold PBS (Thermo Fischer). Washed cells were resuspended in 25 mL of PBS. Triton, PBS, or peptide in 10% DMSO/PBS were added to 180 μL of resuspended RBCs and incubated at 37° C. for 1 h. Samples were read at 450 nm. Data was expressed as percent hemolysis by relativizing to the Triton and PBS controls.
# E. coli BL-21 = format: cell-based, Escherichia coli
# Description: The E. coli, P. aeruginosa, and P. syringae bacterial strains were routinely grown in LB broth (EMD Chemicals, Gibbstown, N.J.). […] All other bacteria were grown at 37° C. with agitation.
# Overnight bacterial cultures were diluted to an OD of 0.01. μL of diluted culture and 10 μL of 10× peptide or vehicle were added to the wells of a 96-well microtiter plate for a final 1× concentration. Bacteria were grown in desired growth conditions in a Synergy H1 Microplate Reader (Biotek, Winooski, Vt.). For MIC, serial two-fold dilutions of the peptides were used. MIC was determined as the concentration of peptide that prevented overnight growth as indicated by OD 600.
# [2] = system: Pseudomonas aeruginosa PAO1
# Source text: (§1) E. coli BL-21 frozen stock culture was purchased from Thermo Fischer. Pseudomonas aeruginosa PAO1 frozen stock culture was obtained from the Shrout Laboratory at the University of Notre Dame. Pseudomonas syringae frozen stock culture was obtained from the Innes Laboratory at Indiana University. Xanthomonas axonopodis pathovar Starr and Garces pathovar phaseoli (ATCC 9563) frozen stock culture was purchased from the ATCC. Streptococcus pyogenes M1T1 frozen stock culture was obtained from the lab of Dr. Victor Nizet, University of California San Diego. A methicillin resistant Staphylococcus aureus JKD frozen stock culture was obtained from the lab of Dr. Timothy Stinear, University of Melbourne.
# (§2) The E. coli, P. aeruginosa, and P. syringae bacterial strains were routinely grown in LB broth (EMD Chemicals, Gibbstown, N.J.). S. aureus and S. pyogenes were routinely grown in Todd Hewitt broth (Neogen Corporation, Lansing, Mich.). X. axonopodis was routinely grown in Nutrient Broth (Sigma-Aldrich Co., St. Louis, Mo.). P. syringae and X. axonopodis were grown at room temperature without agitation. All other bacteria were grown at 37° C. with agitation.
# (§3) Overnight bacterial cultures were diluted to an OD of 0.01. […] and 10 μL of 10× peptide or vehicle were added to the wells of a 96-well microtiter plate for a final 1× concentration. Bacteria were grown in desired growth conditions in a Synergy H1 Microplate Reader (Biotek, Winooski, Vt.). For MIC, serial two-fold dilutions of the peptides were used. MIC was determined as the concentration of peptide that prevented overnight growth as indicated by OD 600. For peptide screening, 8 μM or 4 μM peptide was screened against various bacteria. Peptides that inhibited overnight growth were selected for further study.
# [3] = system: Streptococcus pyogenes M1T1
# Source text: as §1, §2, §3
Compound,hemolysis of library peptides [1],MIC E. coli (E. coli BL-21),MIC P. aeruginosa [2],MIC S. pyogenes [3]
CC[C@H](C)[C@H](NC(=O)[C@H](CCCCN)NC(=O)[C@H](CC(N)=O)NC(=O)[C@H](CCCCN)NC(=O)[C@H](CC(C)C)NC(=O)[C@H](Cc1ccc(O)cc1)NC(=O)[C@H](CCC(N)=O)NC(=O)[C@H](CCCNC(=N)N)NC(=O)[C@@H](NC(=O)[C@@H](NC(=O)[C@H](CCCCN)NC(=O)[C@H](CCCCN)NC(=O)[C@H](Cc1c[nH]c2ccccc12)NC(=O)[C@H](C)N)[C@@H](C)O)[C@@H](C)CC)C(=O)N[C@@H](CCCCN)C(=O)N[C@@H](CCCCN)C(=O)N[C@@H](CCCCN)C(=O)NCC(=O)N[C@@H](CCCNC(=N)N)C(=O)N[C@@H](CCCCN)C(=O)N[C@@H](C)C(=O)N[C@H](C(=O)N[C@H](C(=O)N[C@@H](C)C(=O)N[C@@H](Cc1c[nH]c2ccccc12)C(=O)O)[C@@H](C)CC)C(C)C [Peptide 20] (H-AWKKTIRQYLKNKIKKKGRKAVIAW-OH),no significant changes in hemolysis,8 µM,10 µM,8 µM
CC[C@H](C)[C@H](NC(=O)[C@H](CCCCN)NC(=O)[C@H](CC(N)=O)NC(=O)[C@H](CCCCN)NC(=O)[C@H](CC(C)C)NC(=O)[C@H](Cc1ccc(O)cc1)NC(=O)[C@H](CCC(N)=O)NC(=O)[C@H](CCCNC(=N)N)NC(=O)[C@@H](NC(=O)[C@@H](NC(=O)[C@H](CCCCN)NC(=O)[C@H](CCCCN)NC(=O)CNC(=O)[C@H](C)N)[C@@H](C)O)[C@@H](C)CC)C(=O)N[C@@H](CCCCN)C(=O)N[C@@H](CCCCN)C(=O)N[C@@H](CCCCN)C(=O)N[C@@H](Cc1c[nH]c2ccccc12)C(=O)N[C@@H](CCCNC(=N)N)C(=O)N[C@@H](CCCCN)C(=O)N[C@@H](C)C(=O)N[C@H](C(=O)N[C@H](C(=O)N[C@@H](C)C(=O)N[C@@H](Cc1c[nH]c2ccccc12)C(=O)O)[C@@H](C)CC)C(C)C [Peptide 52] (H-AGKKTIRQYLKNKIKKKWRKAVIAW-OH),low levels of hemolysis at higher concentrations,8 µM,10 µM,8 µM
CC[C@H](C)[C@H](NC(=O)[C@H](CCCCN)NC(=O)[C@H](CC(N)=O)NC(=O)[C@H](CCCCN)NC(=O)[C@H](CC(C)C)NC(=O)[C@H](Cc1ccc(O)cc1)NC(=O)[C@H](CCC(N)=O)NC(=O)[C@H](CCCNC(=N)N)NC(=O)[C@@H](NC(=O)[C@@H](NC(=O)[C@H](CCCCN)NC(=O)[C@H](CCCCN)NC(=O)CNC(=O)[C@H](C)N)[C@@H](C)O)[C@@H](C)CC)C(=O)N[C@@H](CCCCN)C(=O)N[C@@H](CCCCN)C(=O)N[C@@H](CCCCN)C(=O)NCC(=O)N[C@@H](CCCNC(=N)N)C(=O)N[C@@H](CCCCN)C(=O)N[C@@H](Cc1c[nH]c2ccccc12)C(=O)N[C@H](C(=O)N[C@H](C(=O)N[C@@H](C)C(=O)N[C@@H](Cc1c[nH]c2ccccc12)C(=O)O)[C@@H](C)CC)C(C)C [Peptide 60] (H-AGKKTIRQYLKNKIKKKGRKWVIAW-OH),no significant changes in hemolysis,–,–,–
CC[C@H](C)[C@H](NC(=O)[C@H](CCC(=O)O)NC(=O)[C@H](CC(N)=O)NC(=O)[C@H](CCCCN)NC(=O)[C@H](CC(C)C)NC(=O)[C@H](Cc1ccc(O)cc1)NC(=O)[C@H](CCC(N)=O)NC(=O)[C@H](CCCNC(=N)N)NC(=O)[C@@H](NC(=O)[C@@H](NC(=O)[C@H](CCCCN)NC(=O)[C@H](CCCCN)NC(=O)[C@H](Cc1c[nH]c2ccccc12)NC(=O)[C@H](C)N)[C@@H](C)O)[C@@H](C)CC)C(=O)N[C@@H](CCCCN)C(=O)N[C@@H](CCCCN)C(=O)N[C@@H](CCCCN)C(=O)N[C@@H](Cc1c[nH]c2ccccc12)C(=O)N[C@@H](CCCNC(=N)N)C(=O)N[C@@H](CCCCN)C(=O)N[C@@H](C)C(=O)N[C@H](C(=O)N[C@H](C(=O)N[C@@H](C)C(=O)N[C@@H](Cc1c[nH]c2ccccc12)C(=O)O)[C@@H](C)CC)C(C)C [Peptide 90] (H-AWKKTIRQYLKNEIKKKWRKAVIAW-OH),low levels of hemolysis at higher concentrations,2 µM,–,8 µM
CC[C@H](C)[C@H](NC(=O)[C@H](CCCCN)NC(=O)[C@H](CC(N)=O)NC(=O)[C@H](CCCCN)NC(=O)[C@H](CC(C)C)NC(=O)[C@H](Cc1ccc(O)cc1)NC(=O)[C@H](CCC(N)=O)NC(=O)[C@H](CCCNC(=N)N)NC(=O)[C@@H](NC(=O)[C@@H](NC(=O)[C@H](CCC(=O)O)NC(=O)[C@H](CCCCN)NC(=O)[C@H](Cc1c[nH]c2ccccc12)NC(=O)[C@H](C)N)[C@@H](C)O)[C@@H](C)CC)C(=O)N[C@@H](CCCCN)C(=O)N[C@@H](CCCCN)C(=O)N[C@@H](CCCCN)C(=O)N[C@@H](Cc1c[nH]c2ccccc12)C(=O)N[C@@H](CCCNC(=N)N)C(=O)N[C@@H](CCCCN)C(=O)N[C@@H](C)C(=O)N[C@H](C(=O)N[C@H](C(=O)N[C@@H](C)C(=O)N[C@@H](Cc1c[nH]c2ccccc12)C(=O)O)[C@@H](C)CC)C(C)C [Peptide 91] (H-AWKETIRQYLKNKIKKKWRKAVIAW-OH),low levels of hemolysis at higher concentrations,2 µM,–,10 µM
CC[C@H](C)[C@H](NC(=O)[C@H](CCCCN)NC(=O)[C@H](CC(N)=O)NC(=O)[C@H](CCCCN)NC(=O)[C@H](CC(C)C)NC(=O)[C@H](Cc1ccc(O)cc1)NC(=O)[C@H](CCC(N)=O)NC(=O)[C@H](CCCNC(=N)N)NC(=O)[C@@H](NC(=O)[C@@H](NC(=O)[C@H](CCCCN)NC(=O)[C@H](CCCCN)NC(=O)[C@H](Cc1c[nH]c2ccccc12)NC(=O)[C@H](C)N)[C@@H](C)O)[C@@H](C)CC)C(=O)N[C@@H](CCCCN)C(=O)N[C@@H](CCCCN)C(=O)N[C@@H](CCCCN)C(=O)N[C@@H](Cc1c[nH]c2ccccc12)C(=O)N[C@@H](CCCNC(=N)N)C(=O)N[C@@H](CCCCN)C(=O)N[C@@H](C)C(=O)N[C@H](C(=O)N[C@H](C(=O)N[C@@H](C)C(=O)N[C@@H](Cc1c[nH]c2ccccc12)C(=O)O)[C@@H](C)CC)C(C)C [Peptide 92] (H-AWKKTIRQYLKNKIKKKWRKAVIAW-OH),no significant changes in hemolysis,4 µM,–,8 µM
CC[C@H](C)[C@H](NC(=O)[C@H](CCCCN)NC(=O)[C@H](CCC(=O)O)NC(=O)[C@H](CCCCN)NC(=O)[C@H](Cc1c[nH]c2ccccc12)NC(=O)[C@H](C)N)C(=O)N[C@@H](CCCNC(=N)N)C(=O)N[C@@H](CCC(N)=O)C(=O)N[C@@H](Cc1ccc(O)cc1)C(=O)N[C@@H](CC(C)C)C(=O)N[C@@H](CCCCN)C(=O)N[C@@H](CC(N)=O)C(=O)N[C@@H](CCC(=O)O)C(=O)N[C@H](C(=O)N[C@@H](CCCCN)C(=O)N[C@@H](CCCCN)C(=O)N[C@@H](CCCCN)C(=O)N[C@@H](Cc1c[nH]c2ccccc12)C(=O)N[C@@H](CCCNC(=N)N)C(=O)N[C@@H](CCCCN)C(=O)N[C@@H](C)C(=O)N[C@H](C(=O)N[C@H](C(=O)N[C@@H](C)C(=O)N[C@@H](Cc1c[nH]c2ccccc12)C(=O)O)[C@@H](C)CC)C(C)C)[C@@H](C)CC [Peptide 93] (H-AWKEKIRQYLKNEIKKKWRKAVIAW-OH),low levels of hemolysis at higher concentrations,1 µM,–,8 µM
CC[C@H](C)[C@H](NC(=O)[C@H](CCC(=O)O)NC(=O)[C@H](CC(N)=O)NC(=O)[C@H](CCCCN)NC(=O)[C@H](CC(C)C)NC(=O)[C@H](Cc1ccc(O)cc1)NC(=O)[C@H](CCCCN)NC(=O)[C@H](CCCNC(=N)N)NC(=O)[C@@H](NC(=O)[C@@H](NC(=O)[C@H](CCC(=O)O)NC(=O)[C@H](CCCCN)NC(=O)[C@H](Cc1c[nH]c2ccccc12)NC(=O)[C@H](C)N)[C@@H](C)O)[C@@H](C)CC)C(=O)N[C@@H](CCCCN)C(=O)N[C@@H](CCCCN)C(=O)N[C@@H](CCCCN)C(=O)N[C@@H](Cc1c[nH]c2ccccc12)C(=O)N[C@@H](CCCNC(=N)N)C(=O)N[C@@H](CCCCN)C(=O)N[C@@H](C)C(=O)N[C@H](C(=O)N[C@H](C(=O)N[C@@H](C)C(=O)N[C@@H](Cc1c[nH]c2ccccc12)C(=O)O)[C@@H](C)CC)C(C)C [Peptide 94] (H-AWKETIRKYLKNEIKKKWRKAVIAW-OH),low levels of hemolysis at higher concentrations,2 µM,8 µM,10 µM
CC[C@H](C)[C@H](NC(=O)[C@H](CCCCN)NC(=O)[C@H](CCC(=O)O)NC(=O)[C@H](CCCCN)NC(=O)[C@H](Cc1c[nH]c2ccccc12)NC(=O)[C@H](C)N)C(=O)N[C@@H](CCCNC(=N)N)C(=O)N[C@@H](CCCCN)C(=O)N[C@@H](CCCCN)C(=O)N[C@@H](CC(C)C)C(=O)N[C@@H](CCCCN)C(=O)N[C@@H](CC(N)=O)C(=O)N[C@@H](CCC(=O)O)C(=O)N[C@H](C(=O)N[C@@H](CCCCN)C(=O)N[C@@H](CCCCN)C(=O)N[C@@H](CCCCN)C(=O)N[C@@H](Cc1c[nH]c2ccccc12)C(=O)N[C@@H](CCCNC(=N)N)C(=O)N[C@@H](CCCCN)C(=O)N[C@@H](C)C(=O)N[C@H](C(=O)N[C@H](C(=O)N[C@@H](C)C(=O)N[C@@H](Cc1c[nH]c2ccccc12)C(=O)O)[C@@H](C)CC)C(C)C)[C@@H](C)CC [Peptide 96] (H-AWKEKIRKKLKNEIKKKWRKAVIAW-OH),no significant changes in hemolysis,2 µM,8 µM,8 µM
